Results taken from US20130078718A1, “CONVERSION OF VASCULAR ENDOTHELIAL CELLS INTO MULTIPOTENT STEM-LIKE CELLS” (PRESIDENT AND FELLOWS OF HARVARD COLLEGE, priority 2010, published 2013).
“Also recorded” adds a separate entry of the source.

T1: ALK2 with ALK5 (Homo sapiens, UniProt Q04771)
T1 construct: endogenous in cells; host or cells: HUVEC
T1 sequence (Q04771 21-509): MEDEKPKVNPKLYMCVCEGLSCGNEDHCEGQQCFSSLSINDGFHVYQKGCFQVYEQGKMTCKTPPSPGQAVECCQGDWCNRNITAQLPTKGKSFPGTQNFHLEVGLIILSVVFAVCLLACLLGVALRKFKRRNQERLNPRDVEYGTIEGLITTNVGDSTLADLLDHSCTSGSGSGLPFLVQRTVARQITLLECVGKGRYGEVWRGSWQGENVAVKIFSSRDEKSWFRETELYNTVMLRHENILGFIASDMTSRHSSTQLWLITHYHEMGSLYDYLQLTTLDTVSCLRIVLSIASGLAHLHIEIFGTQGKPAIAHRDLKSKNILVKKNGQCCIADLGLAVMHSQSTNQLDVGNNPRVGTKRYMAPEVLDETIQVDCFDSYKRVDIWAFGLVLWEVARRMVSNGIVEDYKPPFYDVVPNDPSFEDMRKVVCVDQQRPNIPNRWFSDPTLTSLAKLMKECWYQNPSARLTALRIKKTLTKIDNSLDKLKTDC

B1: BMP7: Recombinant BMP7 protein (R&D Systems), ALK2 activating ligand that inhibits EndMT (protein)
chain: STGSKQRSQNRSKTPKNQEALRMANVAENSSSDQRQACKKHELYVSFRDLGWQDWIIAPEGYAAYYCEGECAFPLNSYMNATNHAIVQTLVHFINPETVPKPCCAPTQLNAISVLYFDDSSNVILKKYRNMVVRACGCH

Experiments:
ALK2 = experiment: siRNA knockdown of ALK2 expression (immunoblotting); assay type: cell-based, human; conditions: transfected for 24 hours
Method: (§1) siRNA gene expression knockdown studies were performed using the TriFECTa RNAi kit (Integrated DNA Technologies) and corresponding protocol. Each 27 mer siRNA duplex was transfected into cells using X-tremeGene siRNA transfection reagent (Roche) following the manufacturer's guidelines. siRNA was synthesized (Integrated DNA Technologies) with the following sequences: ALK2: 5′-[…]-3′ (SEQ ID NO: 51); negative control: 5′-[…]-3′ (SEQ ID NO: 52).
(§2) siRNA gene expression knockdown studies were performed using the TriFECTa RNAi kit (Integrated DNA Technologies) and corresponding protocol. Each 27 mer siRNA duplex was transfected into cells using X-tremeGene siRNA transfection reagent (Roche) following the manufacturer's guidelines. siRNA was synthesized (Integrated DNA Technologies) with the following sequences: […]

[1] = system: endothelial cells (HUVEC, HCMEC); experiment: RNA interference: effect of ALK siRNA on TGF-β2- or BMP4-induced EndMT and multipotency; assay type: cell-based, human
Method: Cells were grown in StemPro osteogenic, chondrogenic, or adipogenic culture medium (Invitrogen). Alkaline phosphatase staining was performed using the alkaline phosphatase kit and protocol (Sigma-Aldrich) on cultures grown in osteogenic medium for 7 days to detect osteoblasts. Alizarin Red (Sigma-Aldrich) staining was performed for 30 minutes on cultures grown in osteogenic medium for 21 days to detect matrix calcification. Alcian Blue (Sigma) staining was used to stain chondrocyte proteoglycans for 5 minutes in cultures grown in chondrogenic medium for 14 days. Oil Red O (Sigma-Aldrich) staining was performed for 15 minutes on cultures grown in adipogenic medium for 7 days.
as §1
Cells were grown in StemPro osteogenic, chondrogenic, or adipogenic culture medium (Invitrogen). Alkaline phosphatase staining was performed using the alkaline phosphatase kit and protocol (Sigma-Aldrich) on cultures grown in osteogenic medium for 7 d to detect osteoblasts. Alizarin Red (Sigma-Aldrich) staining was performed for 30 min on cultures grown in osteogenic medium for 21 d to detect matrix calcification. Alcian Blue (Sigma) staining was used to stain chondrocyte proteoglycans for 5 minutes in cultures grown in chondrogenic medium for 14 d. Oil Red O (Sigma-Aldrich) staining was performed for 15 min on cultures grown in adipogenic medium for 7 d. For in vivo analysis, endothelial cells were labeled with fluorescent quantum dots using the Qtracker 525 Cell Labeling Kit (Invitrogen). Cells were treated in culture to induce EndMT then absorbed into OPLA polylactic acid scaffolds (BD Biosciences). Scaffolds were surgically implanted subcutaneously into immunodeficient nude mice (Nu/Nu strain; Charles River Laboratories). Local injection of StemPro differentiation medium (described above) was performed in the area of the implants every 72 h for 6 weeks. Scaffolds were cryosectioned and stained with Alizarin Red, Alcian Blue, or Oil Red O as described above. All procedures were reviewed and approved by the Institutional Animal Care and Use Committee at Harvard Medical School.
as §2

HUVECs = experiment: Assessment of EndMT inhibitors (immunoblotting); assay type: cell-based, human; conditions: dorsomorphin 5 μM, BMP7 10 ng ml−1, VEGF 25 ng ml−1; for TGF-β2-induced changes in CD31, FSP-1 and CD44 expression (immunoblots): HUVECs
Method: Human umbilical vein endothelial cells (HUVEC) and human cutaneous microvascular endothelial cells (HCMEC) isolated as previously described (35). Cells were tested for purity and found to express no markers for lymphatic endothelial cells or stromal cells (pericytes, smooth muscle cells, etc.) (36). This was reconfirmed by flow cytometry analysis (data not shown). Clonal populations were isolated with PYREX 8×8 mm cloning cylinders (Corning) and shown to respond in a manner identical to that of the cultures used for our experiments (FIG. 25B-D). Cells were grown in culture using EGM-2 medium (Cambrex), containing 10% FBS and 1% Penicillin/Streptomycin, followed by human endothelial serum free medium (Gibco) 24 h prior to all experimental conditions. Bone marrow derived mesenchymal stem cells (ScienCell Research Laboratories) were grown in mesenchymal stem cell medium (ScienCell Research Laboratories). Bone marrow derived hematopoietic stem cells (Lonza) were grown in HPGM medium (Lonza). Human corneal fibroblasts, from a stock provided by Dr. Elizabeth Hay (Harvard Medical School), were grown in RPMI medium, containing 10% FBS and 1% Penicillin/Streptomycin. Primary human osteoblasts, chondrocytes, and adipocytes and their respective growth media were obtained from Cell Applications, Inc. […] Recombinant VEGF (R&D Systems) was added to cultures at a concentration of 25 ng ml^-1. Dorsomorphin (Sigma-Aldrich) was added to cultures at a concentration of 5 μM. All experiments for this study were performed at minimum in triplicate. Immunoassays were performed using the following antibodies at concentrations (and using protocols) recommended by the respective manufacturers: […] Stressgen), phospho-Smad2 (3101), Smad2 (3122), phospho-Smad5 (9516), Smad5 (9517; […] Santa Cruz Biotechnology), osterix (ab22552), adiponectin (ab22554), N-cadherin (ab76057), NG2 (ab83508), vWF (ab68545; Abcam); CD31 (IR610; Dako), […]; GenScript); α-SMA ([…]), β-actin (A1978; Sigma-Aldrich). Samples were run with Criterion precast SDS-PAGE Gels (Bio-Rad). […] TrueBlot IgG beads (eBioscience) were used for immunoprecipitation experiments. AlexaFluor secondary antibodies (Invitrogen) were used at a dilution of 1:200. Images were acquired using a Nikon 80i fluorescence microscope.

EndMT = conditions: references 30, 31; cited from earlier work
Smad2 and Smad5 = experiment: Smad phosphorylation by immunoblotting; assay type: cell-based, human; conditions: HUVECs, 10 ng ml−1, 1 h
Method: Human umbilical vein endothelial cells (HUVEC) and human cutaneous microvascular endothelial cells (HCMEC) were provided by J. Bischoff (Children's Hospital Boston) and isolated as previously described^35. […] Cells were grown in culture using EGM-2 medium (Cambrex), containing 10% FBS and 1% Penicillin/Streptomycin, followed by human endothelial serum free medium (Gibco) 24 hours prior to all experimental conditions. Bone marrow derived mesenchymal stem cells (ScienCell Research Laboratories) were grown in mesenchymal stem cell medium (ScienCell Research Laboratories). Human corneal fibroblasts, from a stock initially provided by E. Hay (Harvard Medical School), were grown in RPMI medium, containing 10% FBS and 1% Penicillin/Streptomycin. Primary human osteoblasts, chondrocytes, and adipocytes and their respective growth media were obtained from Cell Applications Inc. Recombinant TGF-β2 and BMP4 proteins (R&D Systems) were added to the serum free culture medium for all relevant experiments at a concentration of 10 ng/mL. Cells were treated for 15 minutes to assess ALK2 phosphorylation, 1 hour to measure Smad5 phosphorylation, or 48 hours to induce EndMT. All experiments for this study were performed at minimum in triplicate.
Immunoassays were performed using the following antibodies at concentrations (and using protocols) recommended by the respective manufacturers: FSP-1 (H00006275-M01; Stressgen), ALK2 (sc-5671), Phospho-tyrosine (sc-7020), VE-cadherin (sc-6458), TIE2 (sc-324, sc-9026), STRO-1 (sc-47733), CD44 (sc-71220), CD90 (sc-9163), Osteocalcin (sc-74495, sc-23790), SOX9 (sc-20095), COL2A1 (sc-59958, sc-52658), PPARγ2 (sc-22022; Santa Cruz Biotechnology), vWF (ab68545; Abcam); His (A00174; GenScript); α-SMA (A5228), β-actin (A1978; Sigma-Aldrich). Samples were run with Criterion precast SDS-PAGE Gels (Bio-Rad). HRP-conjugated IgG TrueBlot reagents (18-8814, 18-8816, 18-8817; eBioscience) were used at a dilution of 1:1000. TrueBlot IgG beads (eBioscience) were used for immunoprecipitation experiments. Alexa Fluor secondary antibodies (Invitrogen) were used at a dilution of 1:200. Images were acquired using a Nikon 80i fluorescence microscope.
Human umbilical vein endothelial cells (HUVEC) and human cutaneous microvascular endothelial cells (HCMEC) isolated as previously described (35). […] Cells were grown in culture using EGM-2 medium (Cambrex), containing 10% FBS and 1% Penicillin/Streptomycin, followed by human endothelial serum free medium (Gibco) 24 h prior to all experimental conditions. Bone marrow derived mesenchymal stem cells (ScienCell Research Laboratories) were grown in mesenchymal stem cell medium (ScienCell Research Laboratories). Bone marrow derived hematopoietic stem cells (Lonza) were grown in HPGM medium (Lonza). Human corneal fibroblasts, from a stock provided by Dr. Elizabeth Hay (Harvard Medical School), were grown in RPMI medium, containing 10% FBS and 1% Penicillin/Streptomycin. Primary human osteoblasts, chondrocytes, and adipocytes and their respective growth media were obtained from Cell Applications, Inc. Recombinant TGF-β2, BMP4, and BMP7 proteins (R&D Systems) were added to the serum free culture medium for all relevant experiments at a concentration of 10 ng ml^−1. Recombinant VEGF (R&D Systems) was added to cultures at a concentration of 25 ng ml^−1. Dorsomorphin (Sigma-Aldrich) was added to cultures at a concentration of 5 μM.

ALK2 with ALK5 = biological target: T1, ALK2 with ALK5; experiment: Interaction of ALK2 with ALK5: immunoprecipitation of ALK2, immunoblotting for ALK5; assay type: cell-based; conditions: 10 ng ml−1, 15 min
Method: Human umbilical vein endothelial cells (HUVEC) and human cutaneous microvascular endothelial cells (HCMEC) isolated as previously described (35). Cells were tested for purity and found to express no markers for lymphatic endothelial cells or stromal cells (pericytes, smooth muscle cells, etc.) (36). This was reconfirmed by flow cytometry analysis (data not shown). Clonal populations were isolated with PYREX 8×8 mm cloning cylinders (Corning) and shown to respond in a manner identical to that of the cultures used for our experiments (FIG. 25B-D). Cells were grown in culture using EGM-2 medium (Cambrex), containing 10% FBS and 1% Penicillin/Streptomycin, followed by human endothelial serum free medium (Gibco) 24 h prior to all experimental conditions. Bone marrow derived mesenchymal stem cells (ScienCell Research Laboratories) were grown in mesenchymal stem cell medium (ScienCell Research Laboratories). Bone marrow derived hematopoietic stem cells (Lonza) were grown in HPGM medium (Lonza). Human corneal fibroblasts, from a stock provided by Dr. Elizabeth Hay (Harvard Medical School), were grown in RPMI medium, containing 10% FBS and 1% Penicillin/Streptomycin. Primary human osteoblasts, chondrocytes, and adipocytes and their respective growth media were obtained from Cell Applications, Inc. […] Recombinant VEGF (R&D Systems) was added to cultures at a concentration of 25 ng ml^-1. Dorsomorphin (Sigma-Aldrich) was added to cultures at a concentration of 5 μM. All experiments for this study were performed at minimum in triplicate. Immunoassays were performed using the following antibodies at concentrations (and using protocols) recommended by the respective manufacturers: […] Stressgen), phospho-Smad2 (3101), Smad2 (3122), phospho-Smad5 (9516), Smad5 (9517; […] Santa Cruz Biotechnology), osterix (ab22552), adiponectin (ab22554), N-cadherin (ab76057), NG2 (ab83508), vWF (ab68545; Abcam); CD31 (IR610; Dako), […]; GenScript); α-SMA ([…]), β-actin (A1978; Sigma-Aldrich). […] Images were acquired using a Nikon 80i fluorescence microscope.

[2] = siRNA 24 hours, then TGF-β2 or BMP4 48 hours
[3] = siRNA transfected, osteogenic medium 7 days

ALK5 in ALK2 immunoprecipitates (ALK2 with ALK5)	Molecule	ALK2 expression (immunoblotting) (ALK2)	TGF-β2- or BMP4-induced decrease in VE-cadherin and increase in CD44 expression (ELISA) ([1]; HUVECs, ALK-specific siRNA)	TGF-β2- or BMP4-induced increases in FSP-1 and STRO-1 expression (immunoblotting) ([1]; siRNA 24 h, then TGF-β2 or BMP4 48 h)	TGF-β2- or BMP4-induced STRO-1 expression (immunoblotting) [1, 2]	TGF-β2- or BMP4-induced increase in FSP-1 expression (immunoblotting) [1, 2]	cells expressing FSP-1 after TGF-β2 or BMP4 (flow cytometry) [1, 2]	TGF-β2- or BMP4-induced increases in osteocalcin and osterix expression (real-time quantitative PCR) [1, 3]	alkaline phosphatase staining of TGF-β2 or BMP4 treated cultures [1, 3]	TGF-β2-induced changes in CD31, FSP-1 and CD44 expression (immunoblots) (HUVECs)	effect on EndMT (inhibitor) (HUVECs)	effect on EndMT (EndMT)	phosphorylation of Smad2 and Smad5 (immunoblotting) (Smad2 and Smad5)
	ALK2 siRNA: 27 mer siRNA duplex 5'-GCAACACUGUCCAUUCUUCUUAACCAG-3′ (SEQ ID NO: 51/56) (chemistry not fully specified)	complete inhibition	inhibited	blocked these increases	prevented TGF-β2- or BMP4-induced increases	completely blocked these increases	very few cells expressing FSP-1	prevented these increases	no positive staining and none				
	VEGF									inhibition of TGF-β2-induced decreases in CD31 and increases in FSP-1 and CD44 expression	inhibitors of EndMT	inhibit EndMT	
No interaction of ALK2 and ALK5	B1									inhibition of TGF-β2-induced decreases in CD31 and increases in FSP-1 and CD44 expression	inhibits EndMT; also recorded: inhibitors of EndMT		stimulated phosphorylation of only Smad5
